For one experiment, the target named is T1, Recombinant human HDAC6 (Homo sapiens, UniProt Q9UBN7).
T1 construct: full length, MW=159 kDa; GST (N); host or cells: Sf9 insect cells (baculovirus)
T1 sequence (Q9UBN7 1-1215): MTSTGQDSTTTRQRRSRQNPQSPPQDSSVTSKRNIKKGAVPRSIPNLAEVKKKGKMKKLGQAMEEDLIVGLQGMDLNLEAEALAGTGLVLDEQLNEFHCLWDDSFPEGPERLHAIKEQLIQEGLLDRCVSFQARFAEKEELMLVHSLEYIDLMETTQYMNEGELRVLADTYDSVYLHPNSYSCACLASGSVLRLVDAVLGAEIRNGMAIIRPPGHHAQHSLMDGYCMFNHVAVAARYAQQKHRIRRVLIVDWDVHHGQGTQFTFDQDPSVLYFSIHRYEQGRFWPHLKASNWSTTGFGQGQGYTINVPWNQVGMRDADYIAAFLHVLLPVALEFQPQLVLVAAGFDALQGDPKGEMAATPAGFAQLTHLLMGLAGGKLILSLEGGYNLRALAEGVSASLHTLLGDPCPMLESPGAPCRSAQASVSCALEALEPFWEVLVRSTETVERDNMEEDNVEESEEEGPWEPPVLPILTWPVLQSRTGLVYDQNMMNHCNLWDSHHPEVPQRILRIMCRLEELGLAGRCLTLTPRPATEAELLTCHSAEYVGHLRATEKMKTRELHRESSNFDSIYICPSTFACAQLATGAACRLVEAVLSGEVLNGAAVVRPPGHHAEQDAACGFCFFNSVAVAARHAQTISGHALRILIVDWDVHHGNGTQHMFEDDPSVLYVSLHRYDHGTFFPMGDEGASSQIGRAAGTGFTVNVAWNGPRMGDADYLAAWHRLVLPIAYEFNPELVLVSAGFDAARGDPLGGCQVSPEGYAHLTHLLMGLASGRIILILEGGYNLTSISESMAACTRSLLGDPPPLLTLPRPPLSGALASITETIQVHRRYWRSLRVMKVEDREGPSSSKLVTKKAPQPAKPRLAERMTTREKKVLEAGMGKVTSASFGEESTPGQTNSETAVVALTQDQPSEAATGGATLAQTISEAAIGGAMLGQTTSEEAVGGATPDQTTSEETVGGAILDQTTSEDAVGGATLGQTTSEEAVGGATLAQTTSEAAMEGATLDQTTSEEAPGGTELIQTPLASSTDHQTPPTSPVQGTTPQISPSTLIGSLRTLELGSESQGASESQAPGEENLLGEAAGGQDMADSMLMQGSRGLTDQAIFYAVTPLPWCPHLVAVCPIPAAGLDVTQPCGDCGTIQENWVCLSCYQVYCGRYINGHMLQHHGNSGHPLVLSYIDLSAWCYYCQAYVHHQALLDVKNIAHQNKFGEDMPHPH
Briefly: HDAC6 biochemical assay, AMC-labeled peptide substrate. To be noted: HDAC6; read-out: HDAC Isoform IC50 (nM) 6. In short, it runs like this:
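Two-step fluorogenic read-out: enzyme deacetylates 50 μM RHKK(Ac)AMC for 1 h at 30° C in pH 8.0 Tris buffer with BSA and 1% DMSO, then developer cleavage gives signal at Ex 360/Em 460. Enzyme: 0.3 ng/ul recombinant full-length human HDAC6, GST-tagged, Sf9-expressed.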

The target of another experiment is T2, Human HDAC5 (Homo sapiens, UniProt Q9UQL6).
T2 construct: full length with C-terminal His tag, MW=51.1 kDa; His (C); host or cells: baculovirus expression system
Briefly: HDAC5 biochemical assay, class IIa-specific substrate. To be noted: read-out: HDAC Isoform IC50 (nM) 5. The procedure, abridged: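 Full-length C-terminal His-tagged HDAC5 from baculovirus (0.05 ng/ul) incubated 30 min at room temperature with 50 μM Boc-Lys(trifluoroacetyl)-AMC and compound, Tris pH 8.0 buffer with BSA, 1% DMSO. Developer then releases AMC; fluorescence 360/460 nm.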

Another experiment deals with T3, Human HDAC4 (Homo sapiens, UniProt P56524).
T3 construct: amino acids 627-1085 with N-terminal GST tag; GST (N); host or cells: baculovirus expression system
Briefly: HDAC4 biochemical assay, class IIa-specific substrate. To be noted: read-out: HDAC Isoform IC50 (nM) 4. In short, it runs like this:
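GST-tagged human HDAC4 (aa 627-1085, baculovirus) at 0.004 ng/ul was incubated 30 min at room temperature with 50 μM class IIa-specific substrate BOC-Lys(trifluoroacetyl)-AMC in Tris-HCl pH 8.0 buffer with BSA, 1% DMSO. Developer then released AMC, read at 360/460 nm.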

The target in the next experiment is T4, Human HDAC9 (Homo sapiens, UniProt Q9UKV0).
T4 construct: amino acids 604-1066 with C-terminal His tag; His (C); host or cells: baculovirus expression system
The experiment can be described thus: HDAC9 biochemical assay, class IIa-specific substrate. To be noted: read-out: HDAC Isoform IC50 (nM) 9. In short, it runs like this:
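HDAC9 residues 604-1066 (C-terminal His tag, baculovirus-expressed) at 0.06 ng/ul with 50 μM class IIa substrate Boc-Lys(trifluoroacetyl)-AMC in Tris-HCl pH 8.0 buffer with BSA and 1% DMSO. 30 min at room temperature, then developer added; fluorescence read at 360/460 nm Ex/Em.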

In a further experiment the target is T5, Human HDAC7 (Homo sapiens, UniProt Q8WUI4).
T5 construct: (a.a. 518-end) with N-terminal GST tag; GST (N); host or cells: baculovirus expression system
T5 sequence (Q8WUI4 518-952 limits assumed): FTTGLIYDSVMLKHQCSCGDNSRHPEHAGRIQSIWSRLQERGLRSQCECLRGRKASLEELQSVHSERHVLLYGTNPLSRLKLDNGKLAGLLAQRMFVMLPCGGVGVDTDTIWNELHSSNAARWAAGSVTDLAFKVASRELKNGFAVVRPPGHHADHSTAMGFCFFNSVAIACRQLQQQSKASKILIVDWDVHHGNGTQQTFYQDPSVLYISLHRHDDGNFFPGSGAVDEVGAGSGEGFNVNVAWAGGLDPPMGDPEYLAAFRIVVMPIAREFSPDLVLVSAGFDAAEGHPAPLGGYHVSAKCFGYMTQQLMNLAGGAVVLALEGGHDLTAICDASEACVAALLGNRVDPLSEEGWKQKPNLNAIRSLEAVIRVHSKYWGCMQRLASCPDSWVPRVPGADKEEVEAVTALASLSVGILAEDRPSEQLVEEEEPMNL
Briefly: HDAC7 biochemical assay, class IIa-specific substrate. To be noted: read-out: HDAC Isoform IC50 (nM) 7. The procedure, abridged:
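GST-tagged HDAC7 (a.a. 518-end, baculovirus-expressed) at 0.001 ng/ul with 50 μM Boc-Lys(trifluoroacetyl)-AMC substrate, 30 min at room temperature in pH 8.0 Tris buffer with BSA, 1% DMSO final. Developer then releases AMC; fluorescence read at 360/460 nm.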

In another experiment the target is T6, Human HDAC1 (Homo sapiens, UniProt Q13547).
T6 construct: full length with C-terminal His-tag and C-terminal FLAG-tag; His (C); FLAG (C); host or cells: baculovirus expression system
The experiment can be described thus: HDAC1 biochemical assay, AMC-labeled peptide substrate. To be noted: read-out: HDAC Isoform IC50 (nM) 1. The procedure, abridged:
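Baculovirus-expressed full-length human HDAC1 with His and FLAG tags, 0.3 ng/ul, incubated 1 h at 30° C with compound and 50 μM RHKK(Ac)AMC in Tris pH 8.0 buffer with BSA and 1% DMSO. Developer then releases AMC from deacetylated substrate; fluorescence read at 360/460 nm.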

Some results are limits rather than exact numbers.

T3 sequence (P56524 627-1084 limits assumed): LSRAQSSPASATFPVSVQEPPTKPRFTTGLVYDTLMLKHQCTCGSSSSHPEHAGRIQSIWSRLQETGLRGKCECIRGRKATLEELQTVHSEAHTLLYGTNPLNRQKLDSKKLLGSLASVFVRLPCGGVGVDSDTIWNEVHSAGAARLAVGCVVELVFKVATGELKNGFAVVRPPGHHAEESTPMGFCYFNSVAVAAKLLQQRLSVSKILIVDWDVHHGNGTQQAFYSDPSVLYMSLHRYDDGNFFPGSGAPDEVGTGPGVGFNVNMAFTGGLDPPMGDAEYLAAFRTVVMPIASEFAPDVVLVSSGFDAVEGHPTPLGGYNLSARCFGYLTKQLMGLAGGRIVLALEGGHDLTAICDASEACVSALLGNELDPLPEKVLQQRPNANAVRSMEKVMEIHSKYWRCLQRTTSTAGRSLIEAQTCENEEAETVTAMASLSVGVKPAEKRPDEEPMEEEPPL
T6 sequence (Q13547 whole entry): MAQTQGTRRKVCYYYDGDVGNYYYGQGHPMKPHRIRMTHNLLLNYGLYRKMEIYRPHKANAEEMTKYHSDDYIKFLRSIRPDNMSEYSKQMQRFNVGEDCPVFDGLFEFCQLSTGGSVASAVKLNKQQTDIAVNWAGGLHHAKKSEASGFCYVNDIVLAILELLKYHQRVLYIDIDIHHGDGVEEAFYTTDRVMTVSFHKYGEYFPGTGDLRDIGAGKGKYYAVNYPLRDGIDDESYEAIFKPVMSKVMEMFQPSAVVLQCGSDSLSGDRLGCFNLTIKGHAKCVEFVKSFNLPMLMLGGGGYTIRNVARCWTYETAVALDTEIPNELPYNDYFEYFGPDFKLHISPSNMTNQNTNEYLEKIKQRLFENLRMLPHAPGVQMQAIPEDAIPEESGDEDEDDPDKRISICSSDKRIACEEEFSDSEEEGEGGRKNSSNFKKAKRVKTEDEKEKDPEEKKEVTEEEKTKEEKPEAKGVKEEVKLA
T2 sequence (Q9UQL6 656-1122 limits assumed): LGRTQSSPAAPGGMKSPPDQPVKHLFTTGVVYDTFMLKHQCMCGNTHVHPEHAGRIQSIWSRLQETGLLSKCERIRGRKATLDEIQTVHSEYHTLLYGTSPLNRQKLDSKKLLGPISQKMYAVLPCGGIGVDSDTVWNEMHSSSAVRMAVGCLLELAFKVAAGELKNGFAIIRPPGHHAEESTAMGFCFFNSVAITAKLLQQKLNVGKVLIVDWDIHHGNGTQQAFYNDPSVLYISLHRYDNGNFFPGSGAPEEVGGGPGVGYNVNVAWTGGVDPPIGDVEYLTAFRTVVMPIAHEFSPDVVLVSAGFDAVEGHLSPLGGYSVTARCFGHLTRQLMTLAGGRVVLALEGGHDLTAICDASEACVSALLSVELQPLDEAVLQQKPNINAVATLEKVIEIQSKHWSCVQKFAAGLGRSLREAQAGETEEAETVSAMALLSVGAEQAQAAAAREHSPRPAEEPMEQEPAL
T4 sequence (Q9UKV0 604-1066 isoform Q9UKV0-5): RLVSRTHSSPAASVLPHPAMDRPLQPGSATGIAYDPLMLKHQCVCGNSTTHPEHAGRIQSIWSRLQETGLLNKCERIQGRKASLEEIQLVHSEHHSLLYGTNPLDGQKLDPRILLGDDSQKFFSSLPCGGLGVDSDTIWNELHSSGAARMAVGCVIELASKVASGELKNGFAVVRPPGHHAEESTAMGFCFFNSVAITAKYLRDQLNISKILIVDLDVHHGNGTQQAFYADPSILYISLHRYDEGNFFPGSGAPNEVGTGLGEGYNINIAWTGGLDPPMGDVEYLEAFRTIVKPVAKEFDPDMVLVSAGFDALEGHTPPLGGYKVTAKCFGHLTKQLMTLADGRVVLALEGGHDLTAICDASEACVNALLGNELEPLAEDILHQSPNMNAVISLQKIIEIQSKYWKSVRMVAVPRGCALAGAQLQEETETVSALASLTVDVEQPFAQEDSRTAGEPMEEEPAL

Take `COc1ncc(N(Cc2ccc(-c3noc(C(F)(F)F)n3)s2)c2cnccn2)cn1` [Example CT, 2-Methoxy-N-(pyrazin-2-yl)-N-({5-[5-(trifluoromethyl)-1,2,4-oxadiazol-3-yl]thiophen-2-yl}methyl)pyrimidin-5-amine]: the IC50 was no more than 10000 nM at Recombinant human HDAC6; no more than 500 nM on Human HDAC5; no more than 500 nM at Human HDAC4; no more than 1000 nM on Human HDAC9; no more than 500 nM at Human HDAC7; greater than 10000 nM at Human HDAC1.
`FC(F)(F)c1nc(-c2ccc(CN(c3cnc(C4CC4)nc3)c3cnccn3)s2)no1` [Example CU, 2-Cyclopropyl-N-(pyrazin-2-yl)-N-({5-[5-(trifluoromethyl)-1,2,4-oxadiazol-3-yl]thiophen-2-yl}methyl)pyrimidin-5-amine]: the half-maximal inhibitory concentration (IC50) is no more than 10000 nM on Recombinant human HDAC6; no more than 1000 nM at Human HDAC5; no more than 500 nM on Human HDAC4; no more than 10000 nM on Human HDAC9; no more than 1000 nM on Human HDAC7; greater than 10000 nM on Human HDAC1.
Turning to `FC(F)(F)c1ncc(N(Cc2ccc(-c3noc(C(F)(F)F)n3)s2)c2cnccn2)cn1` [Example CV, N-(Pyrazin-2-yl)-2-(trifluoromethyl)-N-({5-[5-(trifluoromethyl)-1,2,4-oxadiazol-3-yl]thiophen-2-yl}methyl)pyrimidin-5-amine], the IC50 was no more than 10000 nM on Recombinant human HDAC6; no more than 1000 nM on Human HDAC5; no more than 1000 nM at Human HDAC4; no more than 10000 nM at Human HDAC9; no more than 1000 nM at Human HDAC7; greater than 10000 nM at Human HDAC1.
As for `CS(=O)(=O)c1ncc(N(Cc2ccc(-c3noc(C(F)(F)F)n3)s2)c2cnccn2)cn1` [Example CW, 2-Methanesulfonyl-N-(pyrazin-2-yl)-N-({5-[5-(trifluoromethyl)-1,2,4-oxadiazol-3-yl]thiophen-2-yl}methyl)pyrimidin-5-amine], the IC50 at Recombinant human HDAC6 was no more than 10000 nM; on Human HDAC5, no more than 500 nM; at Human HDAC4 it was no more than 500 nM; on Human HDAC9, no more than 10000 nM; at Human HDAC7 it was no more than 500 nM; at Human HDAC1, greater than 10000 nM.
As for `Cc1ncncc1N(Cc1ccc(-c2noc(C(F)(F)F)n2)s1)c1cnccn1` [Example CX, 4-Methyl-N-(pyrazin-2-yl)-N-({5-[5-(trifluoromethyl)-1,2,4-oxadiazol-3-yl]thiophen-2-yl}methyl)pyrimidin-5-amine], the IC50 on Recombinant human HDAC6 was no more than 10000 nM; at Human HDAC5 it was no more than 500 nM; on Human HDAC4, no more than 500 nM; at Human HDAC9, no more than 1000 nM; on Human HDAC7, no more than 500 nM; at Human HDAC1, greater than 10000 nM.
On to `COc1ncncc1N(Cc1ccc(-c2noc(C(F)(F)F)n2)s1)c1cnccn1` [Example CY, 4-Methoxy-N-(pyrazin-2-yl)-N-({5-[5-(trifluoromethyl)-1,2,4-oxadiazol-3-yl]thiophen-2-yl}methyl)pyrimidin-5-amine], for which the IC50 at Recombinant human HDAC6 was no more than 10000 nM; at Human HDAC5, no more than 500 nM; on Human HDAC4, no more than 1000 nM; on Human HDAC9, no more than 10000 nM; at Human HDAC7, no more than 10000 nM; on Human HDAC1, greater than 10000 nM.
For the molecule `FC(F)(F)c1nc(-c2ccc(CN(c3cnccn3)c3cncnc3C3CC3)s2)no1` [Example CZ, 4-Cyclopropyl-N-(pyrazin-2-yl)-N-({5-[5-(trifluoromethyl)-1,2,4-oxadiazol-3-yl]thiophen-2-yl}methyl)pyrimidin-5-amine], the IC50 is no more than 10000 nM at Recombinant human HDAC6; no more than 500 nM on Human HDAC5; no more than 500 nM at Human HDAC4; no more than 1000 nM at Human HDAC9; no more than 500 nM at Human HDAC7; greater than 10000 nM at Human HDAC1.
With `FC(F)(F)c1nc(-c2ccc(CN(c3cnccn3)c3cncnc3C(F)(F)F)s2)no1` [Example DA, N-(Pyrazin-2-yl)-4-(trifluoromethyl)-N-({5-[5-(trifluoromethyl)-1,2,4-oxadiazol-3-yl]thiophen-2-yl}methyl)pyrimidin-5-amine], the IC50 at Recombinant human HDAC6 is no more than 10000 nM; at Human HDAC5 it was no more than 10000 nM; at Human HDAC4 it was no more than 1000 nM; on Human HDAC9, no more than 10000 nM; on Human HDAC7, no more than 10000 nM; on Human HDAC1, greater than 10000 nM.
Turning to `Cc1ncc(N(Cc2ccc(-c3noc(C(F)(F)F)n3)s2)c2cnccn2)c(C)n1` [Example DB, 2,4-Dimethyl-N-(pyrazin-2-yl)-N-({5-[5-(trifluoromethyl)-1,2,4-oxadiazol-3-yl]thiophen-2-yl}methyl)pyrimidin-5-amine], the IC50 at Recombinant human HDAC6 was no more than 10000 nM; at Human HDAC5, no more than 500 nM; at Human HDAC4 it was no more than 500 nM; at Human HDAC9, no more than 1000 nM; at Human HDAC7 it was no more than 1000 nM; on Human HDAC1 it was greater than 10000 nM.
With `Cc1ncnc(C)c1N(Cc1ccc(-c2noc(C(F)(F)F)n2)s1)c1cnccn1` [Example DC, 4,6-Dimethyl-N-(pyrazin-2-yl)-N-({5-[5-(trifluoromethyl)-1,2,4-oxadiazol-3-yl]thiophen-2-yl}methyl)pyrimidin-5-amine], the 50% inhibitory concentration (IC50) is no more than 10000 nM on Recombinant human HDAC6; no more than 500 nM at Human HDAC5; no more than 500 nM at Human HDAC4; no more than 1000 nM at Human HDAC9; no more than 500 nM on Human HDAC7; greater than 10000 nM on Human HDAC1.

Broadly, the IC50 is the concentration needed to halve the response being measured.
